Measured values: patent publication US8828994B2, “Di- and tri-substituted oxathiazine derivatives, method for the production thereof, use thereof as medicine and drug containing said derivatives and use thereof” (SANOFI, priority 2011, dated 2014)

Each compound was assayed against human 11β-HSD1 microsome fraction (Homo sapiens, UniProt P28845) (assay: Enzymatic 11beta-HSD1 test (SPA-based detection)). Conditions: [1,2-3H]-cortisone, NADPH, 37° C., 1 hour, read-out: IC50 (nM), biological activity.
human 11β-HSD1 microsome fraction, sequence (P28845 whole entry): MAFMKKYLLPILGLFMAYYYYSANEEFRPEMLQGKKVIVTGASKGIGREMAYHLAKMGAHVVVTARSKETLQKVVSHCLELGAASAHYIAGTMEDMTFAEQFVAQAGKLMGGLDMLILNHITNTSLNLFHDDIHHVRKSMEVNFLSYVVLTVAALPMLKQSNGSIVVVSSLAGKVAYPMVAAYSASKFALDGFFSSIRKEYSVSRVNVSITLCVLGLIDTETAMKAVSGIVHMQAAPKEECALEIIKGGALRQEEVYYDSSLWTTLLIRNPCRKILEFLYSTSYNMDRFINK
Type: biochemical
Description: First of all, 20 μl of the human 11β-HSD1 microsome fraction (0.2 μg of protein), prepared in 50 mM HEPES, 0.1% BSA (w/v), were applied to a plate with 384 wells. The test compounds (0.09 μl) were applied to the assay plate in 100% DMSO. The reaction was started by addition of 20 μl of [1,2-^3H]-cortisone (0.1 μCi/[…]) in assay buffer comprising 25 mM HEPES, 100 mM KCl, 5 mM NaCl, 2 mM MgCl2 and 0.25 mM NADPH. The plate was agitated at 37° C. for 1 hour. At the same time, a stop solution comprising 20 mg/ml SPA-PVT beads, 1.6 mg/ml monoclonal cortisol antibody and 0.01 mM SSR110887 (inhibitor from the Biovitrium patent) in 50 mM HEPES, 1 M NaCl and 1 M KCl was stirred at room temperature. To stop the reaction, 25 μl of the stop solution were added to each well. The plate was agitated gently at room temperature for 1 further hour and then centrifuged at 500 gav for 1 min, in order that the SPA beads could settle out. […] The comparative compound was glycyrrhetinic acid.
Protein and radioactive substrate were dispensed with a Biomek FX unit (Beckman Coulter) for handling liquids. The test compounds were added with a Cybi-Well equipped with a 90 n1 pin tool (CyBio).
Lit.: Solly S, Mundt S S, Zokian H J, Juy-Fang Ding G, Hermanowski-Vosatka A, Strulovici B and Zheng W. High-throughput screening of 11β-Hydroxysteroid dehydrogenase type 1 in scintillation proximity format.

SMILES | IC50
O=S1(=O)N=C(NC2CCCCC2)OC(c2ccccc2)C12CC2 (centres unmarked) [Example 1, Cyclohexyl-(4,4-dioxo-8-phenyl-7-oxa-4lambda6-thia-5-aza-spiro[2.5]oct-5-en-6-yl)-amine] | 355 nM
CC(C)C1OC(NC2CCCCC2)=NS(=O)(=O)C12CC2 (centres unmarked) [Example 3, Cyclohexyl-(8-isopropyl-4,4-dioxo-7-oxa-4lambda6-thia-5-aza-spiro[2.5]oct-5-en-6-yl)-amine] | 629 nM
CCCC1OC(NC2CCCCC2)=NS(=O)(=O)C12CC2 (centres unmarked) [Example 4, Cyclohexyl-(4,4-dioxo-8-propyl-7-oxa-4lambda6-thia-5-aza-spiro[2.5]oct-5-en-6-yl)-amine] | 518 nM
CC(C)(C)C1OC(NC2CCCCC2)=NS(=O)(=O)C12CC2 (centres unmarked) [Example 5, (8-tert-Butyl-4,4-dioxo-7-oxa-4lambda6-thia-5-aza-spiro[2.5]oct-5-en-6-yl)-cyclohexyl-amine] | 438 nM
CC1OC(NC2CCCCC2)=NS(=O)(=O)C12CC2 (centres unmarked) [Example 6, Cyclohexyl-(8-methyl-4,4-dioxo-7-oxa-4lambda6-thia-5-aza-spiro[2.5]oct-5-en-6-yl)-amine] | 598 nM
